The test concerns the target T1, human S6K1 (RPS6KB1) protein, residues 1–421 with the T412E mutation (Homo sapiens, UniProt P23443, T412E).
T1 construct: the human S6K1 (RPS6KB1) protein, residues 1–421 with the T412E mutation; purchased Carna Biosciences (Kobe, Japan)
Description: Kinase mobility shift assay. The test is classed as biochemical. To be noted: S6K1 residues 1–421, T412E mutation; 2 nM enzyme; 30 min pre-incubation; ATP 0.5 mM; FL-Peptide 26 1.5 μM. Here is the method:
The mobility shift assay was performed as reported. Briefly, the reaction buffer consisted of 50 mM Hepes (pH 7.4), containing 10 mM MgCl2, 0.01 %(w/v) Brij-35, 1 mM dithiothreitol (DTT), 1 %(v/v) Protease Inhibitor Cocktail Set V [Calbiochem (EMD Millipore), Darmstadt, Germany], 1 %(v/v) Phosphatase Inhibitor Cocktail Set III [Calbiochem (EMD Millipore), Darmstadt, Germany], and 0.6 %(v/v) DMSO. […] The S6K1 protein (final concentration of 2 nM) in the reaction buffer was first incubated with different concentrations of the compounds (0–10 μM) for 30 min. […] The kinase reactions were performed at room temperature, and stopped by the addition of termination buffer [50 mM Hepes buffer (pH 7.4), containing 140 mM EDTA and 0.01 %(w/v) Brij-35]. The phosphorylated and unphosphorylated peptides thus obtained were separated and quantified with a Lab-Chip EZ Reader II (PerkinElmer, MA). Data were fitted using a sigmoidal dose–response regression algorithm in GraphPad Prism (GraphPad Software, La Jolla, CA).
T1 sequence (P23443 1-421 T412E): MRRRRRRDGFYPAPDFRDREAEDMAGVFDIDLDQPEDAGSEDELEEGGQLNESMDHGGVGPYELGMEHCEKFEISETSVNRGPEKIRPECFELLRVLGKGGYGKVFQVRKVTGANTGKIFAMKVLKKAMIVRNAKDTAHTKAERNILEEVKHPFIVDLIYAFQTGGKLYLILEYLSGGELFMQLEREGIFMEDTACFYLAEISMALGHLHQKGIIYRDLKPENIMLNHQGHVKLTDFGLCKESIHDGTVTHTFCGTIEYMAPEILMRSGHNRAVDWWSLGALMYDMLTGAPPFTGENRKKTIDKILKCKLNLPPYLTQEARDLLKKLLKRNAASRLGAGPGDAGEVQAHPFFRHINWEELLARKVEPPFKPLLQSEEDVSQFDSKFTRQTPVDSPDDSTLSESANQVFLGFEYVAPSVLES
Regarding `c1ccc2[nH]c(C3CCN(c4ncnc5[nH]ncc45)CC3)nc2c1` [Compound F108, 4-[4-(1H-benzimidazol-2-yl)piperidin-1-yl]-1H-pyrazolo[3,4-d]pyrimidine], the IC50 is 81 nM.
The same measure for `C1=C(c2c[nH]c3ccccc23)CCN(c2ncnc3[nH]ncc23)C1` [Compound F109, 4-[4-(1H-indol-3-yl)-3,6-dihydropyridin-1(2H)-yl]-1H-pyrazolo[3,4-d]pyrimidine]: 33 nM; for `NS(=O)(=O)c1ccc(NC(=O)COC(=O)c2c3c(nc4ccccc24)CCCCC3)cc1` [Compound F176, 2-oxo-2-[(4-sulfamoylphenyl)amino]ethyl 7,8,9,10-tetrahydro-6H-cyclohepta[b]quinoline-11-carboxylate]: 232 nM.
In the case of `CC1CCc2nc3ccccc3c(C(=O)OC(C)C(=O)Nc3ccc(S(N)(=O)=O)cc3)c2C1` (centres unmarked) [Compound F177, 1-oxo-1-[(4-sulfamoylphenyl)amino]propan-2-yl-2-methyl-1,2,3,4-tetrahydroacridine-9-carboxylate] it was 567 nM; in that of `O=C(Nc1cccc(C(F)(F)F)c1)C1CCN(c2ncnc3[nH]cnc23)CC1` [Compound F179, 1-(9H-purin-6-yl)-N-[3-(trifluoromethyl)phenyl]piperidine-4-carboxamide], 206 nM.

The values above are taken from article PMC4125821, “Crystal structures of the S6K1 kinase domain in complexes with inhibitors” (Journal of Structural and Functional Genomics, 2014).
